Data: ChEMBL document CHEMBL3137667, “[Drug-induced liver injury; fourteenth updated edition of the bibliographic database of liver injuries and related drugs]” (Gastroenterol Clin Biol, 2004)

Key:
[1] = human
[2] = human; remark: listed apart in the source
[3] = Times to onset, minimal and maximal, observed in the indexed observations. [column 'DELAI' in source]; conditions: human
[4] = human; remark: listed apart in the source
[5] = Highest frequency of moderate liver toxicity observed during clinical trials, expressed as a percentage. [column '% BIOL' in source]; conditions: human
[6] = human, serum, 4383 h
[7] = human; remark: listed apart in the source
[8] = Proposed mechanism(s) of liver damage. [column 'MEC' in source]; conditions: human
[9] = human; remark: listed apart in the source
[10] = Highest frequency of acute liver toxicity observed during clinical trials, expressed as a percentage. [column '% AIGUE' in source]; conditions: human
[11] = human; remark: listed apart in the source
[12] = human; remark: listed apart in the source
[13] = human; remark: listed apart in the source
[14] = Presence of at least one case with successful reintroduction. [column 'REINT' in source]; conditions: human
[15] = human, serum
[16] = human, serum; remark: listed apart in the source
[17] = human; remark: listed apart in the source
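Throughout, for Hepatotoxicity (association with vascular disease): count of indexed literature references reporting vascular liver injury in humans, e.g. peliosis hepatitis, hepatic veno-occlusive disease or Budd-Chiari syndrome.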
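Throughout, for Hepatotoxicity (benign tumour): value is a count of indexed literature references citing a benign tumour confirmed by histopathology.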
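Throughout, for Hepatotoxicity (choleostasis): human cholestatic liver injury, shown by histopathology or by peak ALT or AST elevation over alkaline phosphatase ratio below 2, value counts indexed literature reports.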
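Throughout, for Hepatotoxicity (chronic liver disease): chronic liver injury confirmed by histopathology or persistently raised serum aminotransferase activity beyond 6 months, value given as the count of indexed literature references.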
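Throughout, for Hepatotoxicity (cirrhosis): value is a count of indexed literature references reporting cirrhosis confirmed by histopathology.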
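Throughout, for Hepatotoxicity (cytolytic): human cytolytic liver injury, shown by histopathology or by a ratio above 5 of peak ALT or AST elevation to alkaline phosphatase elevation, value counts indexed references.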
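Throughout, for Hepatotoxicity (granulomatous hepatitis): value is a count of indexed literature references reporting granulomatous liver disease confirmed by histopathology.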
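Throughout, for Hepatotoxicity (malignant tumour): malignant tumour confirmed by histopathology, value gives the count of indexed literature references reporting it.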
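Throughout, for Hepatotoxicity (severe hepatitis): human clinical data: severe hepatitis, meaning potentially life-threatening liver failure or clinically observed cases, the value counts how many indexed literature references report it.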
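Throughout, for Hepatotoxicity (steatosis): steatosis confirmed by histopathology, value is the count of indexed references.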

Structure (SMILES) | Hepatotoxicity (cytolytic) [1] | Hepatotoxicity (malignant tumour) [2] | Hepatotoxicity (time to onset) [3] | Hepatotoxicity (severe hepatitis) [4] | Hepatotoxicity (moderate) [5] [%] | Hepatotoxicity (chronic liver disease) [6] | Hepatotoxicity (granulomatous hepatitis) [7] | Hepatotoxicity (mechanism) [8] | Hepatotoxicity (cirrhosis) [9] | Hepatotoxicity (acute) [10] [%] | Hepatotoxicity (benign tumour) [11] | Hepatotoxicity (association with vascular disease) [12] | Hepatotoxicity (steatosis) [13] | Hepatotoxicity (successful reintroduction) [14] | Hepatotoxicity (moderate) [15] | Hepatotoxicity (acute) [16] | Hepatotoxicity (choleostasis) [17] | also measured
CN1C[C@H](CC#N)C[C@@H]2c3cccc4[nH]c(Cl)c(c34)C[C@H]21 [LERGOTRILE] | 4 | 0 | 4 days - 5 months | 0 | 63.2 | 0 | 0 | Dose-dependant | 0 | 15.8 | 0 | 0 | 0 | yes | 6 | 5 | 0 | 
Cc1cccc(Nc2ccccc2C(=O)O)c1C [MEFENAMIC ACID] |  | 0 | 2 weeks |  |  | 0 |  |  | 0 |  | 0 | 0 | 0 | yes | 0 | 3 |  | Hepatotoxicity (cytolytic) ([1]; Liver): 2; Hepatotoxicity (severe hepatitis) ([4]; Liver): 1; Hepatotoxicity (moderate) ([5]; Liver): 0%; Hepatotoxicity (granulomatous hepatitis) ([7]; Liver): 0; Hepatotoxicity (mechanism) ([8]; Liver): Allergic; Hepatotoxicity (acute) ([10]; Liver): 0%; Hepatotoxicity (choleostasis) ([17]; Liver): 1
CC(=O)Oc1cc(C(C)C)c(OCCN(C)C)cc1C [MOXISYLYTE] | 5 | 0 | 8 days - 3 months | 0 | 0 | 0 | 0 | Allergic, Dose-dependant | 0 | 0 | 0 | 0 | 0 | yes | 1 | 5 | 1 | 
CCc1nn(CCCN2CCN(c3cccc(Cl)c3)CC2)c(=O)n1CCOc1ccccc1 [NEFAZODONE] | 14 | 0 | 1 week - 2 years | 11 | 0 | 0 | 0 | Allergic | 0 | 0 | 0 | 0 | 0 | yes | 4 | 16 | 0 | 
NC(=O)c1cccnc1 [NIACINAMIDE] | 1 | 0 | < 2 months - 3 months | 0 | 6.3 | 0 | 0 | Dose-dependant | 0 | 0 | 0 | 0 | 0 | yes | 1 | 2 | 0 | 
O=C(O)c1cccnc1Nc1cccc(C(F)(F)F)c1 [NIFLUMIC ACID] | 4 | 0 | 3 days - 3.5 weeks | 2 | 0 | 0 | 0 | Allergic | 0 | 0 | 0 | 0 | 0 | yes | 0 | 4 | 1 | 
COc1ccc2[nH]c([S+]([O-])Cc3ncc(C)c(OC)c3C)nc2c1 (stereo unspecified) [OMEPRAZOLE] | 8 | 0 | 2 days - 1 year | 1 | 47 | 0 | 0 | Dose-dependant | 0 | 3.1 | 0 | 0 | 0 | yes | 24 | 10 | 3 | 
O=C1c2ccccc2C(=O)C1c1ccccc1 [PHENINDIONE] | 3 | 0 | 1 week - 2 months | 1 | 0 | 0 | 1 | Allergic | 0 | 0.2 | 0 | 0 | 0 | yes | 1 | 13 | 11 | 
CC(C(=O)O)c1ccc(N2CC=CC2)c(Cl)c1 (stereo unspecified) [PIRPROFEN] | 9 | 0 | 1 week - 1 year | 8 | 2.8 | 1 | 0 | Toxic Metabolite | 1 | 0.3 | 0 | 0 | 2 | yes | 5 | 9 | 2 | 
Cc1ncc(CO)c(CO)c1O [PYRIDOXINE] |  | 0 | 2 months |  |  | 0 |  |  | 0 |  | 0 | 0 | 0 | yes | 2 | 1 |  | Hepatotoxicity (cytolytic) ([1]; Liver): 1; Hepatotoxicity (severe hepatitis) ([4]; Liver): 0; Hepatotoxicity (moderate) ([5]; Liver): 6%; Hepatotoxicity (granulomatous hepatitis) ([7]; Liver): 0; Hepatotoxicity (mechanism) ([8]; Liver): Dose-dependant; Hepatotoxicity (acute) ([10]; Liver): 0%; Hepatotoxicity (choleostasis) ([17]; Liver): 0
CCC1NC(=O)c2cc(S(N)(=O)=O)c(Cl)cc2N1 (stereo unspecified) [QUINETHAZONE] | 0 | 0 | 2 months | 0 | 0 | 0 | 0 | Allergic | 0 | 0 | 0 | 0 | 0 | yes | 0 | 1 | 1 | 
Cc1nc2ccc(CN(C)c3ccc(C(=O)N[C@@H](CCC(=O)O)C(=O)O)s3)cc2c(=O)[nH]1 [RALTITREXED] | 7 | 0 | 2 weeks - 17 weeks | 3 | 100 | 0 | 0 | Dose-dependant | 1 | 21.9 | 0 | 0 | 1 | yes | 20 | 8 | 1 | 
CCCCCCCCNC(C)C(O)c1ccc(SC(C)C)cc1 (stereo unspecified) [SULOCTIDIL] | 7 | 0 | 1 week - 1 year | 2 | 15 | 1 | 0 | Allergic | 4 | 0.5 | 0 | 0 | 1 | yes | 3 | 8 | 3 | 
